From patent US10919852B2, “Immunomodulator compounds” (CHEMOCENTRYX, INC., priority 2017, dated 2021)

Target: human PD-L1 / Human PD-1 (Homo sapiens (Human), UniProt Q9NZQ7)
Experiment: Enzyme-Linked Immunosorbent Assay (ELISA), PD-1/PD-L1 binding
Conditions: plate-coated human PD-L1, biotinylated human PD-1
Experimental: Biological Example: Enzyme-Linked Immunosorbent Assay—ELISA
96 Well plates were coated with […] of human PD-L1 (obtained from R&D) in PBS overnight at 4° C. The wells were then blocked with 2% BSA in PBS (W/V) with 0.05% TWEEN-20 for 1 hour at 37° C. The plates were washed 3 times with PBS/0.05% TWEEN-20 and the compounds were serial diluted (1:5) in dilution medium and added to the ELISA plates. Human PD-1 and biotin 0.3 μg/mL (ACRO Biosystems) were added and incubated for 1 hour at 37° C. then washed 3 times with PBS/0.05% TWEEN-20. A second block was performed with 2% BSA in PBS (W/V)/0.05% TWEEN-20 for 10 min at 37° C. and was washed 3 times with PBS/0.05% TWEEN-20. Streptavidin-HRP was added for 1 hour at 37° C. then washed 3 times with PBS/0.05% TWEEN-20. TMB substrate was added and reacted for 20 min at 37° C. A stop solution (2 N aqueous H2SO4) was added. The absorbance was read at 450 nm using a micro-plate spectrophotometer.

human PD-L1 / Human PD-1, sequence (Q9NZQ7 19-239): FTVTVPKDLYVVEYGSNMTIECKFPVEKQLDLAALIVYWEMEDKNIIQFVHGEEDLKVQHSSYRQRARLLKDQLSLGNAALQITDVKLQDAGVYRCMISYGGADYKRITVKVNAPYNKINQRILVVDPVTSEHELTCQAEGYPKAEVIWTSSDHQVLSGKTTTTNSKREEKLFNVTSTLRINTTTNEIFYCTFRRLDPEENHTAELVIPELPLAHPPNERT

| IC50 [nM] | SMILES |
| --- | --- |
| < 5 | N#Cc1cncc(COc2cc(O[C@H]3CCc4c(-c5cccc(OCCCN6CCC6)c5Cl)cccc43)c(Cl)cc2CNC[C@H]2CCC(=O)N2)c1 |
| 5 to 500 | CCOc1cc(O[C@H]2CCc3c(-c4cccc(OCCCN5CCC5(C)C)c4C)cccc32)c(Cl)cc1CN1CC[C@@H](C(=O)OC)C1 |
| < 5 | CC(=O)OC1CCN(CCCOc2cccc(-c3cccc4c3CC[C@@H]4Oc3cc(OCc4cncc(C#N)c4)c(CN[C@@H]4CCCC[C@@H]4O)cc3Cl)c2Cl)CC1 |
| 5 to 500 | N#Cc1cc(C#N)cc(COc2cc(O[C@@H]3c4cccc(-c5cccc(OCCCN6CCC(F)CC6)c5Cl)c4C[C@H]3F)c(Cl)cc2CNC[C@H]2CCC(=O)N2)c1 |
| < 5 | N#Cc1cncc(COc2cc(O[C@H]3CCc4c(-c5cccc(OCCCN6CC7(C6)CC(F)(F)C7)c5Cl)cccc43)c(Cl)cc2CN[C@@H]2CCCC[C@@H]2O)c1 |
| < 5 | N#Cc1cncc(COc2cc(O[C@H]3CCc4c(-c5cccc(OCCCN6CCC(F)CC6)c5Cl)cccc43)c(Cl)cc2CN2CC[C@@H](F)C2)c1 |
| < 5 | C[C@@H](O)[C@H](NCc1cc(Cl)c(O[C@H]2CCc3c(-c4cccc(OCCCN5CCC(O)CC5)c4F)cccc32)cc1OCc1cncc(C#N)c1)C(=O)O |
| 5 to 500 | Cc1c(OCCCN2CCC(C)(F)CC2)cccc1-c1cccc2c1CC[C@@H]2Oc1cc(OCc2cc(C#N)cc(C#N)c2)c(CNC[C@@H]2CCC(=O)N2)cc1Cl |
| 5 to 500 | Cc1c(OCCCN2CCC(C)(F)CC2)cccc1-c1cccc2c1CC[C@@H]2Oc1cc(OCc2cncc(C#N)c2)c(CN[C@H]2CCC(=O)NC2)cc1Cl |
| 5 to 500 | N#Cc1cncc(COc2cc(O[C@H]3CCc4c(-c5cccc(OCCCN6CCC(F)CC6)c5Cl)cccc43)c(Cl)cc2CN[C@@H]2CCOC[C@H]2F)c1 [drawing 224] |
| < 5 | N#Cc1cncc(COc2cc(O[C@H]3CCc4c(-c5cccc(OCCCN6CCC(F)CC6)c5Cl)cccc43)c(Cl)cc2CN[C@@H]2CCOC[C@H]2O)c1 |
| 5 to 500 | CC1(F)CCN(CCCOc2cccc(-c3cccc4c3CC[C@@H]4Oc3cc(OCc4cncc(C#N)c4)c(CNC[C@H]4CCC(=O)N4)cc3Cl)c2Cl)CC1 |
| 5 to 500 | CCOc1cc(O[C@H]2CCc3c(-c4cccc(OCCCN5CCC5(C)C)c4C)cccc32)c(Cl)cc1CN(C)C(C)CC(=O)O (stereo partly drawn) |
| < 5 | CC(CO)(CO)NCc1cc(Cl)c(O[C@H]2CCc3c(-c4cccc(OCCCN5CCNC(=O)C5)c4Cl)cccc32)cc1OCc1cncc(C#N)c1 |
| < 5 | Cc1c(OCCCN[C@@H]2CCCC[C@@H]2O)cccc1-c1cccc2c1CC[C@@H]2Oc1cc(OCc2cncc(C#N)c2)c(CN[C@H](C(=O)O)[C@@H](C)O)cc1Cl |
| 5 to 500 | Cc1c(OCCCN2CCC(C)(F)CC2)cccc1-c1cccc2c1CC[C@@H]2Oc1cc(OCc2cc(C#N)cc(C#N)c2)c(CN2CCC3(C2)NC(=O)NC3=O)cc1Cl (stereo partly drawn) |
| < 5 | CCOc1cc(O[C@H]2CCc3c(-c4cccc(OCCCN5CCC(F)CC5)c4C)cccc32)c(Cl)cc1CN[C@@H](CO)C(=O)O |
| < 5 | Cc1c(OCCCN2CCC(O)CC2)cccc1-c1cccc2c1CCC2Oc1cc(OCc2cncc(C#N)c2)c(CN[C@H](C(=O)O)[C@@H](C)O)cc1Cl (stereo partly drawn) |
| < 5 | Cc1c(OCCCN2CCC(CO)CC2)cccc1-c1cccc2c1CC[C@@H]2Oc1cc(OCc2cncc(C#N)c2)c(CN[C@H](C(=O)O)[C@@H](C)O)cc1Cl |
| < 5 | N#Cc1cncc(COc2cc(O[C@H]3CCc4c(-c5cccc(OCCCN6CC7(CC(F)C7)C6)c5Cl)cccc43)c(Cl)cc2CN[C@H]2CC[C@@H]2O)c1 |
| 5 to 500 | Cc1c(OCCCN2CCC(F)CC2)cccc1-c1cccc2c1CC[C@@H]2Oc1cc(OCc2cc(C#N)cc(C#N)c2)c(CN[C@H]2CCNC2=O)cc1Cl [drawing 306] |
| 5 to 500 | CC1(F)CCN(Cc2cc(Cl)c(O[C@H]3CCc4c(-c5cccc(OCCCN6CCC(F)CC6)c5Cl)cccc43)cc2OCc2cncc(C#N)c2)CC1 |
| 5 to 500 | CCOc1cc(O[C@H]2CCc3c(-c4cccc(OCCCN5CCC5(C)C)c4C)cccc32)c(Cl)cc1CN(C)CCCCC(=O)O |
| < 5 | C[C@@H](O)[C@H](NCc1cc(Cl)c(O[C@H]2CCc3c(-c4cccc(OCCCN5CCC(O)CC5)c4Cl)cccc32)cc1OCc1cncc(C#N)c1)C(N)=O |
